From ChEMBL document CHEMBL1148029, “Synthesis and radiopharmacological characterization of 2beta-carbo-2'-[18F]fluoroethoxy-3beta-(4-bromo-phenyl)tropane ([18F]MCL-322) as a PET radiotracer for imaging the dopamine transporter (DAT)” (Bioorg Med Chem, 2007)

Legend:
Femur [1] = test: Biodistribution in Wistar rat femur at 300 uCi, iv after 20 mins; format: ADME, organism-based; settings: in vivo
Testes [2] = test: Biodistribution in Wistar rat testes at 300 uCi, iv after 60 mins; format: ADME, organism-based, Testis; settings: in vivo, 1 h
Brain [3] = test: Biodistribution in Wistar rat rest of brain at 300 uCi, iv after 60 mins in presence of nisoxetine; format: ADME, organism-based; settings: in vivo, 1 h
Femur [4] = test: Biodistribution in Wistar rat femur at 300 uCi, iv after 60 mins; format: ADME, organism-based; settings: in vivo, 1 h
Liver [5] = test: Biodistribution in Wistar rat liver at 300 uCi, iv after 240 mins; format: ADME, organism-based; settings: in vivo, 4 h
Blood [6] = test: Biodistribution in Wistar rat blood at 300 uCi, iv after 20 mins; format: ADME, organism-based; settings: in vivo
[7] = Biodistribution in Wistar rat hair and skin at 300 uCi, iv after 240 mins; format: ADME, organism-based; settings: in vivo, 4 h
Harderian gland [8] = test: Biodistribution in Wistar rat harderian glands at 300 uCi, iv after 240 mins; format: ADME, organism-based; settings: in vivo, 4 h
Spleen [9] = test: Biodistribution in Wistar rat spleen at 300 uCi, iv after 120 mins; format: ADME, organism-based; settings: in vivo, 2 h
Hippocampus [10] = test: Biodistribution in Wistar rat hippocampus at 300 uCi, iv after 60 mins in presence of GBR-12909; format: ADME, organism-based; settings: in vivo, 1 h
Plasma [11] = test: Metabolic stability in Wistar rat plasma assessed as polar metabolite level at 1 mCi, iv after 5 mins; format: ADME, organism-based; settings: in vivo
Cortex [12] = test: Biodistribution in Wistar rat cortex at 300 uCi, iv after 60 mins; format: ADME, organism-based; settings: in vivo, 1 h
Testes [13] = test: Biodistribution in Wistar rat testes at 300 uCi, iv after 20 mins; format: ADME, organism-based, Testis; settings: in vivo
Plasma [14] = test: Metabolic stability in Wistar rat plasma assessed as polar metabolite level at 1 mCi, iv after 240 mins; format: ADME, organism-based; settings: in vivo, 4 h
Striatum [15] = test: Biodistribution in Wistar rat striatum at 300 uCi, iv after 240 mins; format: ADME, organism-based; settings: in vivo, 4 h
Kidney [16] = test: Biodistribution in Wistar rat kidney at 300 uCi, iv after 120 mins; format: ADME, organism-based; settings: in vivo, 2 h
[17] = Biodistribution in Wistar rat fat at 300 uCi, iv after 5 mins; format: ADME, organism-based, Adipose tissue; settings: in vivo
[18] = Metabolic stability in Wistar rat striatum at 1 mCi, iv after 60 mins; format: ADME, organism-based; settings: read-out: Stability
Striatum [19] = test: Biodistribution in Wistar rat striatum at 300 uCi, iv after 60 mins; format: ADME, organism-based; settings: in vivo, 1 h
Heart [20] = test: Biodistribution in Wistar rat heart at 300 uCi, iv after 60 mins; format: ADME, organism-based; settings: in vivo, 1 h
Blood [21] = test: Biodistribution in Wistar rat blood at 300 uCi, iv after 60 mins in presence of GBR-12909; format: ADME, organism-based; settings: in vivo, 1 h
Harderian gland [22] = test: Biodistribution in Wistar rat harderian glands at 300 uCi, iv after 5 mins; format: ADME, organism-based; settings: in vivo
Thymus [23] = test: Biodistribution in Wistar rat thymus at 300 uCi, iv after 60 mins; format: ADME, organism-based; settings: in vivo, 1 h
[24] = Biodistribution in Wistar rat rest of brain at 300 uCi, iv after 60 mins; format: ADME, organism-based; settings: in vivo, 1 h
Liver [25] = test: Biodistribution in Wistar rat liver at 300 uCi, iv after 60 mins; format: ADME, organism-based; settings: in vivo, 1 h
Hippocampus [26] = test: Biodistribution in Wistar rat hippocampus at 300 uCi, iv after 120 mins; format: ADME, organism-based; settings: in vivo, 2 h
Cortex [27] = test: Biodistribution in Wistar rat cortex at 300 uCi, iv after 20 mins; format: ADME, organism-based; settings: in vivo
Cerebellum [28] = test: Biodistribution in Wistar rat cerebellum at 300 uCi, iv after 20 mins; format: ADME, organism-based; settings: in vivo
Hippocampus [29] = test: Biodistribution in Wistar rat hippocampus at 300 uCi, iv after 60 mins in presence of citalopram; format: ADME, organism-based; settings: in vivo, 1 h
Harderian gland [30] = test: Biodistribution in Wistar rat harderian glands at 300 uCi, iv after 60 mins; format: ADME, organism-based; settings: in vivo, 1 h
Kidney [31] = test: Biodistribution in Wistar rat kidney at 300 uCi, iv after 5 mins; format: ADME, organism-based; settings: in vivo
Lung = test: Biodistribution in Wistar rat lung at 300 uCi, iv after 240 mins; format: ADME, organism-based; settings: in vivo, 4 h
Blood [32] = test: Biodistribution in Wistar rat blood at 300 uCi, iv after 60 mins; format: ADME, organism-based; settings: in vivo, 1 h
Striatum [33] = test: Biodistribution in Wistar rat striatum at 300 uCi, iv after 60 mins in presence of GBR-12909; format: ADME, organism-based; settings: in vivo, 1 h
Muscle tissue [34] = test: Biodistribution in Wistar rat muscle at 300 uCi, iv after 120 mins; format: ADME, organism-based; settings: in vivo, 2 h
Striatum [35] = test: Biodistribution in Wistar rat striatum at 300 uCi, iv after 120 mins; format: ADME, organism-based; settings: in vivo, 2 h
[36] = Biodistribution in Wistar rat rest of brain at 300 uCi, iv after 240 mins; format: ADME, organism-based; settings: in vivo, 4 h
Liver [37] = test: Biodistribution in Wistar rat liver at 300 uCi, iv after 20 mins; format: ADME, organism-based; settings: in vivo
Blood [38] = test: Biodistribution in Wistar rat blood at 300 uCi, iv after 60 mins in presence of nisoxetine; format: ADME, organism-based; settings: in vivo, 1 h
Striatum [39] = test: Biodistribution in Wistar rat striatum at 300 uCi, iv after 5 mins; format: ADME, organism-based; settings: in vivo
Pancreas [40] = test: Biodistribution in Wistar rat pancreas at 300 uCi, iv after 60 mins; format: ADME, organism-based; settings: in vivo, 1 h
[41] = Biodistribution in Wistar rat hair and skin at 300 uCi, iv after 120 mins; format: ADME, organism-based; settings: in vivo, 2 h
Hippocampus [42] = test: Biodistribution in Wistar rat hippocampus at 300 uCi, iv after 5 mins; format: ADME, organism-based; settings: in vivo
Femur [43] = test: Biodistribution in Wistar rat femur at 300 uCi, iv after 5 mins; format: ADME, organism-based; settings: in vivo
Cortex [44] = test: Biodistribution in Wistar rat cortex at 300 uCi, iv after 120 mins; format: ADME, organism-based; settings: in vivo, 2 h
[45] = Biodistribution in Wistar rat brown fat at 300 uCi, iv after 20 mins; format: ADME, organism-based, Brown adipose tissue; settings: in vivo
Cerebellum [46] = test: Biodistribution in Wistar rat cerebellum at 300 uCi, iv after 120 mins; format: ADME, organism-based; settings: in vivo, 2 h
[47] = Biodistribution in Wistar rat fat at 300 uCi, iv after 120 mins; format: ADME, organism-based, Adipose tissue; settings: in vivo, 2 h
[48] = Biodistribution in Wistar rat rest of brain at 300 uCi, iv after 5 mins; format: ADME, organism-based; settings: in vivo
Harderian gland [49] = test: Biodistribution in Wistar rat harderian glands at 300 uCi, iv after 20 mins; format: ADME, organism-based; settings: in vivo
Muscle tissue [50] = test: Biodistribution in Wistar rat muscle at 300 uCi, iv after 60 mins; format: ADME, organism-based; settings: in vivo, 1 h
Spleen [51] = test: Biodistribution in Wistar rat spleen at 300 uCi, iv after 240 mins; format: ADME, organism-based; settings: in vivo, 4 h
Brain [52] = test: Biodistribution in Wistar rat rest of brain at 300 uCi, iv after 60 mins in presence of GBR-12909; format: ADME, organism-based; settings: in vivo, 1 h
Striatum [53] = test: Biodistribution in Wistar rat striatum at 300 uCi, iv after 60 mins in presence of citalopram; format: ADME, organism-based; settings: in vivo, 1 h
Heart [54] = test: Biodistribution in Wistar rat heart at 300 uCi, iv after 20 mins; format: ADME, organism-based; settings: in vivo
Thymus [55] = test: Biodistribution in Wistar rat thymus at 300 uCi, iv after 240 mins; format: ADME, organism-based; settings: in vivo, 4 h
Cerebellum [56] = test: Biodistribution in Wistar rat cerebellum at 300 uCi, iv after 5 mins; format: ADME, organism-based; settings: in vivo
Femur [57] = test: Biodistribution in Wistar rat femur at 300 uCi, iv after 120 mins; format: ADME, organism-based; settings: in vivo, 2 h
Adrenal = test: Biodistribution in Wistar rat adrenal gland at 300 uCi, iv after 20 mins; format: ADME, organism-based, Adrenal tissue; settings: in vivo
Blood [58] = test: Biodistribution in Wistar rat blood at 300 uCi, iv after 120 mins; format: ADME, organism-based; settings: in vivo, 2 h
Pancreas [59] = test: Biodistribution in Wistar rat pancreas at 300 uCi, iv after 5 mins; format: ADME, organism-based; settings: in vivo

Molecule `CN1C2CCC1C(C(=O)OCC[18F])C(c1ccc(Br)cc1)C2` (stereo unspecified) has a Drug uptake (Femur [1]) of 0.42 % ID/g, a Drug uptake (Testes [2]) of 0.5 % ID/g and a Drug uptake (Brain [3]) of 1.23 % ID/g. For the same molecule, the Drug uptake (Femur [4]) was 0.17 % ID/g, the Drug uptake (Liver [5]) was 15.2 % ID/g and the Drug uptake (Blood [6]) was 0.07 % ID/g. It also gave a Drug uptake [7] of 0.08 % ID/g, a Drug uptake (Harderian gland [8]) of 0.93 % ID/g and a Drug uptake (Spleen [9]) of 0.29 % ID/g. The Drug uptake (Hippocampus [10]) was 1.06 % ID/g, the Stability (Plasma [11]) was 42% and the Drug uptake (Cortex [12]) was 1 % ID/g. The Drug uptake (Testes [13]) was 0.45 % ID/g, the Stability (Plasma [14]) was > 98% and the Drug uptake (Striatum [15]) was 2.45 % ID/g. For the same molecule, the Drug uptake (Kidney [16]) was 1.84 % ID/g, the Drug uptake [17] was 4.64 % ID/g and the remaining at 1 h [18] was > 90%. It also gave a Drug uptake (Striatum [19]) of 3.71 % ID/g, a Drug uptake (Heart [20]) of 0.21 % ID/g and a Drug uptake (Blood [21]) of 0.04 % ID/g. For the same molecule, the Drug uptake (Harderian gland [22]) was 1.46 % ID/g, the Drug uptake (Thymus [23]) was 0.41 % ID/g and the Drug uptake [24] was 1.1 % ID/g. For the same molecule, the Drug uptake (Liver [25]) was 11.8 % ID/g, the Drug uptake (Hippocampus [26]) was 0.42 % ID/g and the Drug uptake (Cortex [27]) was 2.29 % ID/g. It also gave a Drug uptake (Cerebellum [28]) of 1.37 % ID/g, a Drug uptake (Hippocampus [29]) of 1.36 % ID/g and a Drug uptake (Harderian gland [30]) of 2.37 % ID/g. For the same molecule, the Drug uptake (Kidney [31]) was 4.64 % ID/g, the Drug uptake (Lung) was 0.27 % ID/g and the Drug uptake (Blood [32]) was 0.025 % ID/g. For the same molecule, the Drug uptake (Striatum [33]) was 1.51 % ID/g, the Drug uptake (Muscle tissue [34]) was 0.09 % ID/g and the Drug uptake (Striatum [35]) was 0.39 % ID/g. It also gave a Drug uptake [36] of 0.27 % ID/g, a Drug uptake (Liver [37]) of 6.8 % ID/g and a Drug uptake (Blood [38]) of 0.04 % ID/g. For the same molecule, the Drug uptake (Striatum [39]) was 3.23 % ID/g, the Drug uptake (Pancreas [40]) was 0.54 % ID/g and the Drug uptake [41] was 0.17 % ID/g. It also gave a Drug uptake (Hippocampus [42]) of 2.37 % ID/g, a Drug uptake (Femur [43]) of 0.59 % ID/g and a Drug uptake (Cortex [44]) of 0.45 % ID/g. It also gave a Drug uptake [45] of 0.78 % ID/g, a Drug uptake (Cerebellum [46]) of 0.24 % ID/g and a Drug uptake [47] of 0.16 % ID/g. The Drug uptake [48] was 2.53 % ID/g, the Drug uptake (Harderian gland [49]) was 2.04 % ID/g and the Drug uptake (Muscle tissue [50]) was 0.16 % ID/g. For the same molecule, the Drug uptake (Spleen [51]) was 0.12 % ID/g, the Drug uptake (Brain [52]) was 1.07 % ID/g and the Drug uptake (Striatum [53]) was 6.43 % ID/g. It also gave a Drug uptake (Heart [54]) of 0.48 % ID/g, a Drug uptake (Thymus [55]) of 0.08 % ID/g and a Drug uptake (Cerebellum [56]) of 1.77 % ID/g. For the same molecule, the Drug uptake (Femur [57]) was 0.1 % ID/g, the Drug uptake (Adrenal) was 1.21 % ID/g and the Drug uptake (Blood [58]) was 0.03 % ID/g. For the same molecule, the Drug uptake (Pancreas [59]) was 2.09 % ID/g.
